Results from the NIST ThermoML archive (doi:10.1016/j.tca.2015.05.015).
Numbers after ± are expanded uncertainties.

Tests used:
[1] = Molar enthalpy of transition or fusion; settings: Crystal; DSC
[2] = Crystal; DTA

SMILES | Molar enthalpy of transition or fusion [1] | Normal melting temperature [2]
CCCCCCCCCCCCCCCC [hexadecane] | 12 ± 0.55 kcal/mol | 17 ± 5 °C
CCCCCCCCCCCCCCCCCC [octadecane] | 14.2 ± 0.598 kcal/mol | 25 ± 5 °C
